This passage reports inhibition results from EP1268487B1, “TRICYCLIC PROTEIN KINASE INHIBITORS” (Wyeth, priority 2000, dated 2001).

As a reminder, the inhibition is the relative decrease from the control value, in per cent.

One test addresses T1, c-Met (Homo sapiens, UniProt P08581).
T1 construct: The cytoplasmic domain of c-Met was generated by reverse transcriptase-polymerase chain reaction; His tag (from pFastBac-HTc vector; purified on Ni-NTA/Talon); made in house; host or cells: Sf9 insect cells (baculovirus)
The test can be described thus: DELFIA assay for c-Met receptor kinase inhibitors. The format is biochemical. On the procedure: The c-Met kinase assay was performed as a DELFIA (dissociation enchanced lanthanide fluorometric immunoassay), an ELISA-like protocol based upon time-resolved fluorometry as described previously [Braunwalder, A. F., Yarwood, D.R., Sills, M.A., and Lipson, K.E., Anal. Biochem. 238, 159-164 (1996)]. The protocol was adopted for the screening of inhibitors of the kinase activity of recombinant c-Met. [Loganzo, F., and. Hardy, C., American Biotechnology Laboratory 16(13), 26-28 (1998)]. The cytoplasmic domain of c-Met was generated by reverse transcriptase-polymerase chain reaction using RNA isolated from human mammary epithelial cells as template, cloned into the pFastBac-HTc vector (Life Technologies) and protein expressed in Sf9 insect cells by baculovirus infection. Protein was purified by imidazole elution from Ni-NTA resin (Invitrogen, Carlsbad, CA) or Talon resin (Clontech, Palo Alto, CA). Various conditions were evaluated for the kinase screening protocol and screening was accomplished with the following method. Polystyrene Maxisorp plates (Nunc) were pre-coated for 1 hour to overnight at room temperature with 5 µg/ml poly(Glu4-Tyr) diluted in Tris-buffered saline (TBS). Plates were washed 3X with TBS. c-Met protein preparation was diluted 1:80 into 0.1% BSA/ 4 mM HEPES. A master mix was prepared consisting of: 1 volume of diluted c-Met, 1 volume of 5X buffer (20 mM HEPES, pH 7.4; 2 mM MnCl2; 100 µM Na3VO4; 1 mM DTT), 0.9 volume of water. Master mix (29 µl) was added to the wells of peptide-coated microtiter plates. For assays where c-Met autophosphorylation was evaluated, plates were uncoated and c-Met was diluted into 4 mM HEPES at 1:40 without BSA. Compounds (1 µl) at various dilutions (1 mM to 0.1 µM) prepared in DMSO were added and mixed well with an automatic piptettor. After incubation 20 minutes at room temperature, the reaction was initiated with 20 µl of 62.5 µM ATP/ 50 mM MgCl2 (final 25 µM ATP/ 20 mM MgCl2 in assay). Reactions were incubated 45 minutes at room temperature. Plates were then washed 3X with 100 µl each of DELFIA wash buffer (Wallac). Antibody binding was performed by adding 75 µl of Europium-conjugated anti-phosphotyrosine diluted 1:2000 in Assay Buffer (Wallac) for 1 hour at room temperature. Plates were washed 3X with DELFIA wash buffer. Detection was done by addition of 100 µl of Enhancement Solution (Wallac). After 30 minutes, plates were read in a Wallac VICTOR-2 time-resolved fluorometer. Inhibition data was reported as europium counts for compound treated wells normalized to control counts. IC50 values were obtained by using log doses of compound and calculated using Data Analysis Toolbox software, version 1.0.2 (MDL Information Systems, Inc.).

The next test has as its target T2, Raf-1 (c-Raf) (Homo sapiens, UniProt P04049).
T2 construct: Sf9 insect cell lysate containing full length 6his-tagged recombinant human c-Raf; 6his; host or cells: c-Raf: Sf9 insect cell lysate; MEK1 and MAPK: E. coli
The test can be described thus: Raf-1 kinase cascade assay. The format is biochemical. On the procedure:
(Specific Activity: ∼200U/ml). Human Non-active Mek-1-GST and human GST-MAP kinase (recombinant proteins produced in E. coli ). • Stock Solutions c-Raf Assay: • 1. Assay Dilution Buffer (ADB): 20mM MOPS, pH 7.2, 25mM β-glycerol phosphate, 5mM EGTA, 1mM sodium orthovanadate, 1mM dithiothreitol. • 2. Magnesium/ATP Cocktail: 500µM cold ATP and 75 mM magnesium chloride in ADB. • 4. Active Kinase: Human Active c-Raf: Use at 0.4U per assay point. • 5. Non-active GST-MEK1: Use at 0.1µg per assay point. • 6. Non-active GST-p42 MAP Kinase: Use at 1.0 µg per assay point. • Stock Solutions ELISA: • 1. TBST - Tris (50 mM, pH 7.5), NaCl ( 150 mM), Tween-20 (0.05 %) • 2. Superblock (Pierce) • 3. Anti-GST Ab (Pharmacia) • 4. Anti-Phospho MAPK (Sigma) • 5. Anti-Mouse Ab / Europium conjugate (Wallac) • Assay Procedure: • First Stage: c-Raf Dependent Activation of GST-MEK and GST-MAPK • 1. Add […] of ADB per assay (i.e. per well of a 96 well plate) • 2. Add 10 ml of 0.5 mM cold ATP and 75 mM magnesium chloride in ADB. • 3. Add 2 ml of c-Raf (0.4U/assay), in conjunction with 1.6ml non-active MEK1 ([…]). • 4. Add 4 ml of non-active GST-p42 MAP Kinase ([…]). • 5. Incubate for 60 minutes at 30°C in a shaking incubator. • 6. Transfer this mixture to an anti-GST Ab coated 96 well plate (Nunc Immunosorb plates coated o/n with a-GST, then blocked with Pierce Superblock). • 7. Incubate for 60 minutes at 30°C in a shaking incubator • 8. Wash 3X with TBST, add Anti-Phospho MAPK (Sigma) (1:3000) • 9. Incubate for 60 minutes at 30°C in a shaking incubator • 10. Wash 3X with TBST, add Anti-Mouse Ab / Europium conjugate (Wallac) (1:500) • 11. Incubate for 60 minutes at 30°C in a shaking incubator • 12. Wash 3X with TBST, Read plates in Wallac Victor model Plate Reader. • 13. Collect data analyze in Excel for single point and IC50 determinations.
Typically Raf-1 assay is run at compound concentrations from 10 µM to 30 nM in half log dilutions. (% inhibition is determined for each compound concentration).

T2 sequence (P04049 whole entry): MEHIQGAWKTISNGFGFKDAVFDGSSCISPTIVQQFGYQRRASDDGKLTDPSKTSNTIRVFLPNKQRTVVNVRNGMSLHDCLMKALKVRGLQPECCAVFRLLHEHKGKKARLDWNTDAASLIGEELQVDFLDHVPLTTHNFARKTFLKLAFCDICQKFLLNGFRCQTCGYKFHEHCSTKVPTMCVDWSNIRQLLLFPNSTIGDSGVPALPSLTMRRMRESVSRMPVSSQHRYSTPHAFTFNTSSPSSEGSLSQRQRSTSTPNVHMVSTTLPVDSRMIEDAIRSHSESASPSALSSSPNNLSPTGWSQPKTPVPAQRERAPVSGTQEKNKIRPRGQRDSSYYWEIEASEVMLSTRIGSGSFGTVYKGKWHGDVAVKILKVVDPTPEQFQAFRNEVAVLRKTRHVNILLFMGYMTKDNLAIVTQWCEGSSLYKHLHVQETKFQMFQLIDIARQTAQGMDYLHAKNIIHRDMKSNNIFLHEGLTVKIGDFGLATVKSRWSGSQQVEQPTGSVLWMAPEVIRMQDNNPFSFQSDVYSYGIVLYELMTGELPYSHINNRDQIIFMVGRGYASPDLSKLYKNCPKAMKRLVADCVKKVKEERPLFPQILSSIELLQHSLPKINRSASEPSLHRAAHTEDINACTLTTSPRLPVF
T1 sequence (P08581 956-1390 limits assumed): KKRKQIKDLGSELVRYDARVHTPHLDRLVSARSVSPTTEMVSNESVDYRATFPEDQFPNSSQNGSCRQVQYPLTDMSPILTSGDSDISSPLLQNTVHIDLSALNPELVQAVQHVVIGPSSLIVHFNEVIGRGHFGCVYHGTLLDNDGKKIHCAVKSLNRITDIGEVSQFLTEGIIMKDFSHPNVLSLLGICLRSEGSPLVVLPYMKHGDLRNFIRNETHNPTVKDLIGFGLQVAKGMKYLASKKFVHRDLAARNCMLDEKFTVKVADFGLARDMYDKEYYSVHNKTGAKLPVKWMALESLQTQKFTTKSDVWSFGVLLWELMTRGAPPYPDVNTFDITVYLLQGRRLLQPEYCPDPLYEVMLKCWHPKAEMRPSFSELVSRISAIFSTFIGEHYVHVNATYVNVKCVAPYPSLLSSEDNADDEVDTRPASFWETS

With `N#Cc1cnc2cc3c(cc2c1Nc1ccc(F)c(Cl)c1)NCCO3` [Example 7, 9-(3-Chloro-4-fluoroanilino)-2,3-dihydro-1H-[1,4]oxazino[3,2-g]quinoline-8-carbonitrile], the inhibition at 10 µg/mL worked out at 80% against c-Met and 90% against Raf-1 (c-Raf) (dose 10.0 µg/mL). Also, the inhibition at 0.03 µg/mL at Raf-1 (c-Raf) (dose 0.03 µg/mL) was -5%. Further, at Raf-1 (c-Raf) (dose 0.1 µg/mL), the inhibition at 0.1 µg/mL is 2%. The inhibition at 0.3 µg/mL at Raf-1 (c-Raf) (dose 0.3 µg/mL) amounted to 8%. Also, the inhibition at 1 µg/mL against Raf-1 (c-Raf) (dose 1.0 µg/mL) stood at 16%. Besides, the inhibition at 3 µg/mL against Raf-1 (c-Raf) (dose 3.0 µg/mL) was found to be 68%.
